Test results taken from patent publication US20250011869A1, “TLR3 INHIBITORS FOR USE IN THE TREATMENT OF DISEASES ASSOCIATED WITH CARDIOVASCULAR CALCIFICATION” (priority 2021, published 2025).

What was measured:
VICs [1] = assay: Calcification assay of VICs in osteogenic medium (Alizarin Red S, alkaline phosphatase); format: cell-based, human; conditions: VICs in osteoblastic medium
Description: For functional evaluation of osteoblastic activity, VICs were subjected to a calcification assay. Cells were cultured in osteogenic medium including 10 mmol/L beta-glycerophosphate, 10 nmol/L vitamin D3, and 10 nmol/L dexamethasone as described previously^4. The medium was changed every three days. Subsequently, supernatant was analyzed for alkaline phosphatase activity using the commercially available alkaline phosphatase assay kit (Abcam, Cambridge, UK). After careful rinsing with PBS, cells were fixed with 4% paraformaldehyde, washed with distilled water and Alizarin Red S staining solution (Alfa Aesar, Haverhill, MA) was added upon the fixed cells for 20 minutes at room temperature (RT). Imaging of the staining was performed using a Zeiss Axioplan 2 microscope (Zeiss, Oberkochen, Germany). Images were processed using Adobe Photoshop CS5.1 for Mac (Adobe Systems Inc., San Jose, CA, USA) and analyzed with ImageJ software (National Institutes of Health, Bethesda, […]).

VICs [2] = assay: RNA sequencing of VICs vs human osteoblasts; format: cell-based; conditions: Poly(I:C) 20 μg/mL, 72 h
Description: Total-RNA was isolated from five samples (VICs, cultured in calcification media and treated either 72 h with 20 μg/ml Poly(I:C), untreated controls, as well as human osteoblasts) and submitted to transcriptome analysis for the purpose of gene-expression profiling. For the RNA sequencing analysis in FIG. 5 the 2100 Bioanalyzer and RNA 6000 Nano LabChip kits (Agilent Technologies) was used to check for RNA integrity (all RINs >9). The TruSeq® Stranded mRNA HT technology was used for library preparation according to manufacturer's protocol and Illumina NextSeq® 500 1×75 bp single end sequencing was performed at the IMGM® laboratories (Martinsried, Germany). The RNA sequencing analysis in Figure S3 was performed at Novogene (UK) Co. using the NovaSeq 600 PE150.
All primary sequencing analyses were performed using CLC Genomics Workbench (9.5.3) including sequence QC and mapping to the human reference genome (GRCh38.p7). Differentially expression analyses were performed on raw count data and using an exact test based on negative binomial distribution (edgeR version 3.4.0) 10. P-values were adjusted according to the Benjamini-Hochberg method based on the false discovery rate (FDR). Only genes with at least four-fold change were considered. Over representation analysis for gene ontology and pathways on differentially expressed genes were performed using DAVID (6.8) 11 and ConsensusPathDB^12. Gene set enrichment analysis on log 2-fold change pre-ranked data was performed using GSEA software^13 and gene sets for biological hallmark processes and pathways (MSigDB), calcification signature as derived from respective literature, and signatures of differentially expressed genes for calcific aortic valve stenosis versus control^14 (reanalyzed data from GSE12644 using R package limma^15 including genes with more than two-fold change and FDR <0.05). Heat maps were generated using Genesis version 1.8.116 for log 2-fold change data.

TLR3 and IFN-β = assay: RT-PCR of human dermal fibroblasts (wild type, empty vector control, Tlr3−/− CRISPR); format: cell-based; conditions: 5 μg/ml, 6 h
Excerpt: (§1) Human dermal fibroblasts WT and Tlr3^−/− were kindly provided by the Jean-Laurent Casanova group and cultivated in DMEM with 4.5 g/L glucose (Lonza, Basel, Switzerland), 10% FCS (Sigma, St. Louis, MO), penicillin, streptomycin and L-Glutamine. Human dermal fibroblasts CTR cells were provided by the Villunger group and cultivated in DMEM with 4.5 g/L glucose (Lonza, Basel, Switzerland), 10% FCS (Sigma, St. Louis, MO), penicillin, streptomycin and L-Glutamine.
(§2) All cells were cultivated under standard conditions (37° C., supplied with 5% CO2). Passaging of the cells was performed at 70-90% confluency, and cells were only used until passage 7 as described previously^6. Polyinosinic: polycytidylic acid (Poly(I:C); Invivogen, San Diego, CA) was used to stimulate cells at a concentration of either 20 μg/mL or 5 μg/ml, depending on the assay. For blockade of TLR3, the commercially available dsRNA/TLR3 inhibitor ((R)-2-(3-Chloro-6-fluorobenzo [b] thiophene-2-carboxamido)-3-phenyl-propanoic acid) was used (Merck, Darmstadt, Germany) at a concentration of 1 μg/ml as described previously^1,7. LY294002 (Invivogen, San Diego, CA), a PI3K inhibitor, was used at a concentration of 10 μM. For blockade of IFNAR1, a specific blocking antibody (Invitrogen, Carlsbad, CA) was used at a concentration of 4 μg/ml. A stable HEK (human embryonic kidney) reporter cell line (TLR3/ISRE LUCPorter; Imgenex, USA) was purchased for luminometer assay experiments. Cells were cultivated according to the manufacturer's protocol in DMEM with 4.5 g/L glucose (Lonza, Switzerland), 10% FCS (Sigma, St. Louis, MO), penicillin/streptomycin, and 4 mM L-glutamine and […] puromycin (Gibco, USA) as selection agent. Reporter experiments were performed as described previously^8. For the protein expression SF21 cells were purchased at ThermoFisher (#11497013) and cultivated in Gibco™ Sf-900™ SFM supplemented with penicillin, streptomycin and L-Glutamine. In vitro stretch was applied using a Flexcell bioreactor (Flexcell International Corporation, Burlington, NC) applying 15% cyclic strain as described previously^9.
RT-PCR was performed as described previously^17. Total RNA was extracted from homogenized tissue or cell lysates using the Total RNA Miniprep Kit (New England BioLabs, Frankfurt, Germany) according to the manufacturer's instructions. We performed the PCR reaction in a final volume of 12.5 μL containing 2.5 μL of cDNA, 6.25 μL of Master Mix, 1 μL of fluorogenic hybridization probe, 10 μM of primer and 2.75 μL of distilled water. […] The result for the relative gene expression was calculated by the 2-DDCt method. Mean Ct values were calculated from double determinations and samples were considered negative if the Ct values exceeded 4017. […]

IFN-β = IFN-β expression in VICs (RT-qPCR); format: cell-based, human; conditions: Poly(I:C) 2, 4, 6, 24 and 48 h (FIG. 4B)
Description: (§3) Valvular interstitial cells from patients undergoing aortic valve replacement or cardiac transplantation were isolated via collagen digestion as described previously^6. Valves were rinsed in EBSS and subsequently subjected to collagenase digestion (Sigma, St. Louis, MO; 2.5 mg/mL in M199) for 30 minutes at 37° C. Thereafter, tissue samples were vortexed and supernatant containing endothelial cells was removed. Again, collagenase was added to the remaining valve tissue (1 mg/mL) for 3 h at 37° C. For mechanical disintegration of the tissue, vortexing and repeated aspiration via a pipette was performed. The supernatant was transferred into a new tube and subjected to centrifugation (300 g for 8 minutes at 4° C.). Subsequently, cells were resuspended in M199 medium containing 10% fetal calve serum, penicillin, streptomycin, L-Glutamine and amphotericin B (2.5 mg/L).
(§4) All cells were cultivated under standard conditions (37° C., supplied with 5% CO2). Passaging of the cells was performed at 70-90% confluency, and cells were only used until passage 7 as described previously^6. […]
(§5) RT-PCR was performed as described previously^17. […] The result for the relative gene expression was calculated by the 2-DDCt method. Mean Ct values were calculated from double determinations and samples were considered negative if the Ct values exceeded 4017. […]

TLR3-RUNX2 pathway = assay: Immunoblot of human dermal fibroblasts for the TLR3-RUNX2 pathway; format: cell-based; conditions: wild type and empty vector control cells; 5 μg/ml, 6 h
Excerpt: as §1, §2
Protein from tissue or cell lysates was extracted using a Radioimmunoprecipitation Assay Lysis Puffer (150 mM NaCl, 1% NP-40, 0.5% Sodium Deoxycholate, 0.1% SDS and 50 mM Tris (pH 8,0)). For the extraction of nuclear or cytosolic proteins the NE-PER™ Nuclear and Cytoplasmic Extraction Reagents Kit (ThermoScientific, #78835) was used.
Protein was thereafter separated on SDS-polyacrylamide gels of different percentages and transferred to nitrocellulose membranes as described previously^18. After blocking with either 5% BSA in TBS 0.1% Tween, 5% milk in TBS 0.1% Tween or StartingBlock™ (TBS) Blocking buffer (ThermoScientific, #37542) membranes were incubated with primary antibodies listed in Table 2.

TLR3 = TLR3 expression in valvular interstitial cells (immunoblot / RT-qPCR); format: cell-based, human; conditions: RT-qPCR; Poly(I:C) 2, 4, 6, 24 and 48 h (FIG. 4A)
Description: as §3, §4, §5

For “Polyinosinic: polycytidylic acid [Poly(I:C)]”, the “calcification / production of calcific nodules” value (VICs [1]; Poly(I:C) 20 μg/mL or inhibitor 26 μM, Alizarin Red S) was “enhanced the production of calcific nodules”, the “alkaline phosphatase (ALP) activity” value (VICs [1]; supernatant) was “increased the activity” and the “transcriptome of treated VICs” value (VICs [2]) was “induces an osteoblastic transcriptome”. For the same substance, the “genes downregulated in both Poly(I:C)-treated VICs and human osteoblasts compared to untreated VICs” value (VICs [2]; at least four-fold change) was 199 genes, the “genes upregulated in both Poly(I:C)-treated VICs and human osteoblasts compared to untreated VICs” value (VICs [2]; at least four-fold change) was 118 genes and the “transcription of TLR3 and IFN-β” value (TLR3 and IFN-β; Tlr3−/− fibroblasts) was “no response”. The “transcription of TLR3 and IFN-β” value (TLR3 and IFN-β; wild type and empty vector control fibroblasts) was “induced transcription of TLR3 and IFN-β”, the “IFN-β expression in VICs” value (IFN-β) was “increased expression” and the IFNAR1 level (TLR3-RUNX2 pathway) was “upregulation of IFNAR1”. The “levels of osteoblastic transcription factor RUNX2” value (TLR3-RUNX2 pathway) was “increased levels”, the “phosphorylation of IRF3” value (TLR3-RUNX2 pathway) was “phosphorylation of IRF3” and the “TLR3 expression in VICs” value (TLR3) was “increased expression”.
